# Assays:
# Format in all cases: cell-based, rat
# DFSCs [1] = test: Adipogenesis differentiation of cells surviving DOX, Oil Red O staining; conditions: cells that survived DOX for 4 hours; untreated control DFSCs formed only a few adipocytes
# Procedure: To determine the differentiation capabilities of the putative stem cells, DFSCs were subjected to various differentiation procedures. For osteogenesis, cells were cultured for 2 weeks in medium consisting of DMEM-LG, 10% FBS, 50 μg/ml ascorbate-2 phosphate, 10^−8 M dexamethasone, and 10 mM β-glycerophosphate […] as previously described, followed by von Kossa and Alizarin Red staining to assess for mineral deposition (as described in Hung et al., 2002). For adipogenesis, DFSCs were cultured for 2 weeks in medium consisting of DMEM-LG, 10% FBS (Invitrogen Corporation, Carlsbad, Calif., USA), 50 μg/ml ascorbate-2 phosphate (Sigma-Aldrich), 10^−7 M dexamethasone, and 50 μg/ml indomethacin, with a medium change every 3 days (Hung et al., 2002). The cells then were stained with Oil red O to evaluate adipogenesis.
# (§1) In another experiment to determine to enrich the populations of stem cells, DFSCs were treated with doxorubicin (DOX), a substrate of BCRP, at concentrations of 0.5, 1 or 2 μM for 1, 2, 4 and 6 hrs. The cells were incubated at 37° C. for the designated duration. […] The number of viable cells was counted in 5 to 10 randomly selected spots (1 mm^2 each) for calculation of the survival rate as the ratio of treatment/control. […]
# DFSCs [2] = test: Doxorubicin treatment of DFSCs, count of viable cells (survival rate); conditions: DOX 1 μM, incubation increased from 2 to 4 to 6 hours, compared to control without DOX; FIG. 2
# Procedure: (§2) Establishment of cell cultures from rat dental follicle: Dental follicles (DF) were surgically removed from the first mandibular molars of Sprague Dawley rat pups at days 5-7 postnatally, and the isolated DF cells then suspended in MEM medium containing 10% newborn calf serum (NCS), 1 mM sodium pyruvate and antibiotics as previously described (Wise et al., 1992). Next, 5 ml of the cell suspension was transferred into a T-25 cell culture flask and incubated overnight to allow the cells to adhere. […]
# as §1, with “hrs.” for “hrs. The cells were incubated at 37° C. for the designated duration.”
# [3] = test system: Abcb1, Prom1, Notch 1, and CD34; test: Stem cell marker expression in 4-HC surviving cells by RT-PCR and western blotting; conditions: 4-HC surviving cells compared to the original population; on the average
# Procedure: We also tested an ALDH substrate, 4-hydroperoxycyclophosphamide (4-HC), for elimination of non-stem cells in culture. DFSCs were cultured as described above and then treated with 4-HC at the concentrations of 5, 10, 15, 20 and 25 μM in α-MEM medium containing 20% FBS for 48 hours at 37° C. The majority of the cells were killed at a 4-HC concentration greater than 15 μM. The surviving cells then were collected and subjected to cell proliferation, differentiation, and gene expression assays as described above for evaluation of stem cell properties. Putative stem cells surviving from a 4-HC treatment expressed a high level of multiple stem cell markers, including Abcb1, Prom1, Notch 1, and CD34, as determined by RT-PCR and western blotting. On the average, about a 2 to 4-fold increase in expression of these markers was detected in the 4-HC surviving cells as compared to the original population.
# [4] = test system: dental follicle cells (DFCs; non-stem cells); test: 4-HC treatment of dental follicle cells (non-stem cells); conditions: same 4-HC treatment protocol applied to DFCs
# DFSCs [5] = test: 4-HC treatment of DFSCs for elimination of non-stem cells; conditions: 5-25 μM tested, 48 hours at 37° C., α-MEM with 20% FBS
# Procedure: as §2
# We also tested an ALDH substrate, 4-hydroperoxycyclophosphamide (4-HC), for elimination of non-stem cells in culture. […] Putative stem cells surviving from a 4-HC treatment expressed a high level of multiple stem cell markers, including Abcb1, Prom1, Notch 1, and CD34, as determined by RT-PCR and western blotting. On the average, about a 2 to 4-fold increase in expression of these markers was detected in the 4-HC surviving cells as compared to the original population.
# DFSCs [6] = test: Proliferation of cells surviving 4-HC treatment (flow cytometry analysis)
SMILES,adipocyte formation of surviving cells in adipogenesis induction medium (DFSCs [1]),number of surviving cells (DFSCs [2]),increase in expression of stem cell markers [3] [fold],survival of cells [4],4-HC concentration at which the majority of the cells were killed (DFSCs [5]),"proliferation rate of putative stem cells surviving 4-HC (DFSCs [6]; flow cytometry, compared to original cell population not subjected to 4-HC)",effect of 4-HC treatment on proliferation of the cells (DFSCs [6]; surviving cells)
"COc1cccc2c1C(=O)c1c(O)c3c(c(O)c1C2=O)C[C@@](O)(C(=O)CO)C[C@@H]3O[C@H]1C[C@H](N)[C@H](O)[C@H](C)O1 [DOX, doxorubicin]",majority of the cells forming Oil Red O positive adipocytes,decreasing,,,,,
"O=P1(N(CCCl)CCCl)NC(OO)CCO1 (stereo not shown) [4-HC, 4-hydroperoxycyclophosphamide]",,,2 to 4,none of them survived,greater than 15 μM,higher proliferation rate,did not adversely affect

# Reference: US9279105B2, “Enrichment of stem cells from adult tissues” (Board of Supervisors of Louisiana State University And …, priority 2009, dated 2016)
